Reference: patent publication US20210198201A1, “Orally Active Melanocortin Receptor-4 Compounds” (Palatin Technologies, Inc., priority 2018, published 2021)

Columns and labels:
MC1r = target: T1, MC1r (Homo sapiens, UniProt Q01726); test: Competitive inhibition binding assay, MC1r; settings: binding studies
T1 construct: expressed in transfected cells; host or cells: HEK-293 (membrane homogenates)
Method: (§1) A competitive inhibition binding assay is performed using membrane homogenates prepared from HEK-293 cells that express recombinant hMC1ra, hMC4r, hMC3r, or hMC5r, and from B16-F10 mouse melanoma cells (containing endogenous MC1r). In the examples that follow, all values are for human recombinant receptors unless otherwise noted. Assays are performed in 96 well GF/B Millipore multiscreen filtration plates (MAFB NOB10) pre-coated with 0.5% bovine serum albumin (Fraction V). […] After incubation for 60 to 90 minutes at 37° C., the assay mixture is filtered and the membranes washed three times with ice-cold buffer. Filters are dried and counted in a gamma counter for bound radioactivity.
(§2) Maximal specific binding (100%) is defined as the difference in radioactivity (cpm) bound to cell membranes in the absence and presence of 1 μM NDP-α-MSH. […] Each assay is conducted in duplicate or triplicate and the actual mean values are described, with results less than 0% reported as 0%. Ki values for test compounds are determined using Graph-Pad Prism® curve-fitting software.

C57BL/6 male DIO mice = test: Body weight and food intake in vivo study in diet induced obese mice; set-up: species or system mouse
Method: Compound 7.1 was assessed in a body weight and food intake in vivo study in diet induced obese […] mice. C57BL/6 male DIO mice were utilized, that were 17 weeks of age on arrival. Animals were pre-conditioned on a high-fat diet for 11 weeks by Jackson Labs. […] Animals were single housed within a limited access rodent facility, and provided ad libitum with a commercial rodent diet and free access to drinking water. Animals were randomized into five groups, a vehicle group, three dose levels of compound 7.1 (3 mg/kg, 10 mg/kg and 30 mg/kg), and Peptide A, a positive control cyclic peptide of the formula Ac-Arg-cyclo(Orn-Asn-D-Phe-Arg-Trp-Glu)-NH2. Following three days of sham dosing, animals were dosed for three days, with vehicle or Compound 7.1 dosed orally once daily at within one hour of lights out in the AM, and Peptide A dosed by subcutaneous injection twice daily within one hour before lights out and six hours after lights out. Body weights were measured one hour prior to lights out, and feed weights were measured both one hour prior to lights out and six hours post lights out.
*p<0.05 vs. sham (vehicle control) using two-way ANOVA followed by Dunnett's post-test.
**p<0.01 vs sham (vehicle control) using two-way ANOVA followed by Dunnett's post-test.

MC4r (−/−) mice = test: Oral administration in MC4r knockout mice, feed intake and body weight; format: in vivo, mouse
Method: (§3) Feed intake and body weight was evaluated in MCr4 knockout (MC4r−/−) mice (Jackson Laboratories) compared to C57Bl/6 DIO mice. […] Feed weights were taken at time 0, 2, 6 and 24 hours post lights out. […] The change in body weight is shown in FIG. 4 starting on study day 5, the first day of administration of compound 7.1. […] Additionally, there was a statistically significant mean difference, 2.8%, 95% Cl (1.281, 4.253), and p value <0.0001 between DIO mice receiving compound 7.1 and MC4r (−/−) receiving compound 7.1.

MC4r = MC4r (Homo sapiens, UniProt P32245); test: Competitive inhibition binding assay, MC4r; set-up: expressed in transfected cells; host or cells: HEK-293 (membrane homogenates); settings: binding studies
Method: as §1, §2
Competitive Binding Assay Using Eu-NDP-α-MSH. Alternatively, a competitive inhibition binding assay is performed employing Eu-NDP-α-MSH (PerkinElmer Life Sciences catalog No. AD0225) with determination by time-resolved fluorometry (TRF) of the lanthanide chelate. […] After incubation for 90 minutes at 37° C., the reaction was stopped by filtration over Acro Well 96-well filter plates (Pall Life Sciences). The filter plates were washed 4 times with 200 μL of ice-cold phosphate-buffered saline. DELFIA Enhancement solution (PerkinElmer Life Sciences) was added to each well. The plates were incubated on a shaker for 15 minutes and read at 340 nm excitation and 615 nm emission wavelengths. Each assay was conducted in duplicate and mean values were utilized. Ki values were determined by curve-fitting with Graph-Pad Prism® software using a one-site fixed-slope competition binding model.

mMC1r = target: T2, mMC1r (Mus musculus, UniProt Q01727); test: Binding of iodine-125 labeled NDP-α-MSH, B16-F1 cells, mMC1r
T2 construct: endogenous in cells; host or cells: B16-F1
Method: (§4) Melanocortin receptor binding and function of Compound 7.1 was tested. Ki binding values (nM) were calculated utilizing the percent inhibit of the binding of iodine-125 labeled NDP-α-MSH against B16-F1 cells for mMC1r, and human recombinant CHO cells for hMC3r, hMC4r and hMC5r, with the inhibition constant calculated using the Cheng Prusoff equation. Functional results (EC50 and efficacy) were calculated utilizing cAMP assays with NDP-α-MSH for mMC1r, hMC3r and hMC4r, ACTH for hMC2r, and α-MSH for hMC5r for agonist measures, with the same target cells for melanocortin receptors mMC1r, hMC3r, hMC4r and hMC5r, and human recombinant Cloudman M3 cells for hMC2r.

[1] = Plasma concentrations following oral administration in Sprague-Dawley rats; format: in vivo, rat; settings: oral 30 mg/kg
Method: Plasma samples were measured at 15 minutes (2 animals) and 30 minutes, 1 hour, 2 hours, 4 hours, 8 hours and 24 hours (3 animals) post oral administration.

hMC5r = target: T3, hMC5r (Homo sapiens, UniProt P33032); test: Binding of iodine-125 labeled NDP-α-MSH, human recombinant CHO cells, hMC5r
T3 construct: expressed in transfected cells; host or cells: CHO
Method: as §4

C57Bl/6 DIO mice = test: Oral administration, feed intake and body weight in C57Bl/6 DIO mice (comparison with MC4r knockout); format: in vivo, mouse
Method: as §3

hMC2r = target: T4, hMC2r (Homo sapiens, UniProt Q01718); test: cAMP assay hMC2r (human recombinant Cloudman M3 cells, ACTH reference); format: cell-based
T4 construct: expressed in transfected cells; host or cells: Cloudman M3
Method: as §4

hMC3r = target: T5, hMC3r (Homo sapiens, UniProt P41968); test: cAMP assay hMC3r (human recombinant CHO cells, NDP-α-MSH reference); format: cell-based
T5 construct: expressed in transfected cells; host or cells: CHO
Method: as §4

T3 sequence (P33032 whole entry): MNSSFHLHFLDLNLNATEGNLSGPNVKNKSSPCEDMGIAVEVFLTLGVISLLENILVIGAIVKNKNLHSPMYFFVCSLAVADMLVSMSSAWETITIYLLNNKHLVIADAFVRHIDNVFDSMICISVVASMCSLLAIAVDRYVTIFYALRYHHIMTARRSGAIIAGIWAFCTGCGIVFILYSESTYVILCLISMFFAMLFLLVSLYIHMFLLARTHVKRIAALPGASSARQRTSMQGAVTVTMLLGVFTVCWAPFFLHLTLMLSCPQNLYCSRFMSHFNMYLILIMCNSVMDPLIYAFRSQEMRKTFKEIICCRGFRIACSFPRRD
T4 sequence (Q01718 whole entry): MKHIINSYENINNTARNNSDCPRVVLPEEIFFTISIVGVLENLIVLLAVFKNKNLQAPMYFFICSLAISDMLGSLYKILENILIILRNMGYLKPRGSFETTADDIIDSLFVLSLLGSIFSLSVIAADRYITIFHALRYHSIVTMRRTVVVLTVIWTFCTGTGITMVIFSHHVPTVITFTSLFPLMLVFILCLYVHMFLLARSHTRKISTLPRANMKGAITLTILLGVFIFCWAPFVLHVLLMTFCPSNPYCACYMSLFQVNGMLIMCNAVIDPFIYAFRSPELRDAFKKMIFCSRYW
T4 sequence (Q9D159 whole entry partner): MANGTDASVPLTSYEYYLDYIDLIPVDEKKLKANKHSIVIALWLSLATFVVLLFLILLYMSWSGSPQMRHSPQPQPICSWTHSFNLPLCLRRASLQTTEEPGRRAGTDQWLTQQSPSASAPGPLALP
Sequence of MC4r (P32245 whole entry): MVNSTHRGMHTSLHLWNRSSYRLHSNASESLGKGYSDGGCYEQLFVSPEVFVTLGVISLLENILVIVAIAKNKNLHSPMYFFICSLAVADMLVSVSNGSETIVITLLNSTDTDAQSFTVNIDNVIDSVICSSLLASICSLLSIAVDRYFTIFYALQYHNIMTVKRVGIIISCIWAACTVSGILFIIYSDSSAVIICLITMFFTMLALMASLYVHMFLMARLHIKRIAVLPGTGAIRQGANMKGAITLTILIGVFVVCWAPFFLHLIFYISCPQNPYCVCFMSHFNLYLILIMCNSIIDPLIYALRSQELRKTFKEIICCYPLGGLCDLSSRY
T5 sequence (P41968 whole entry): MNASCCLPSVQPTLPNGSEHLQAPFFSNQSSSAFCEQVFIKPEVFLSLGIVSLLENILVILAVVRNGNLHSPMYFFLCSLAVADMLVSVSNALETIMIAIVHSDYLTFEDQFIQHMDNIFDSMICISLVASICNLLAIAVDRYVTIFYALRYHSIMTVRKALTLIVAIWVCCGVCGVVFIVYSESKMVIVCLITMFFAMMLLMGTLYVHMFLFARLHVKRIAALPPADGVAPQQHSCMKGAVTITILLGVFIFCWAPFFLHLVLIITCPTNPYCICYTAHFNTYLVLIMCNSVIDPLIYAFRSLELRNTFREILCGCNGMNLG
T1 sequence (Q01726 whole entry): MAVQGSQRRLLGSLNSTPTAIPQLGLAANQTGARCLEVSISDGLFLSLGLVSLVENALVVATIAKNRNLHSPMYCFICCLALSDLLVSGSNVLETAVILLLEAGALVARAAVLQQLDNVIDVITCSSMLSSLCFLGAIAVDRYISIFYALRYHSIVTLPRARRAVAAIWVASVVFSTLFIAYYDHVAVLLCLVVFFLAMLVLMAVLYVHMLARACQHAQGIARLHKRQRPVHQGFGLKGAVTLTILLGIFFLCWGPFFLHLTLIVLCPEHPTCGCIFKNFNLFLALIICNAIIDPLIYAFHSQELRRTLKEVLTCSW
T2 sequence (Q01727 whole entry): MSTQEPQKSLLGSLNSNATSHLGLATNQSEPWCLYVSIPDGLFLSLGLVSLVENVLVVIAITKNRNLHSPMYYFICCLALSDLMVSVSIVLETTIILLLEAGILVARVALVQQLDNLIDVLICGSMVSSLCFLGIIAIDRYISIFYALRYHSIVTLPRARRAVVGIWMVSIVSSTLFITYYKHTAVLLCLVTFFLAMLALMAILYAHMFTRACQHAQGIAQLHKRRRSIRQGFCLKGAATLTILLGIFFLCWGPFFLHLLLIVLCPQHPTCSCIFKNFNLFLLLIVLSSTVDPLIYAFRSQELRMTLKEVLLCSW

CC(=O)N1CCC(N(CC(C)C)N2CCN(C(=O)[C@@H](Cc3ccc(Cl)cc3)NC(=O)C(C)(C)N)CC2)CC1 [Compound 7.1, N-[(1R)-2-[4-[(1-acetyl-4-piperidyl)-isobutyl-amino]piperazin-1-yl]-1-[(4-chlorophenyl)methyl]-2-oxo-ethyl]-2-amino-2-methyl-propanamide]
Ki (MC1r): 200 nM | effect on body weight (in words) (C57BL/6 male DIO mice; 3 mg/kg, day 3): body weight loss | effect on feed intake at 24 hours post lights out (in words) (C57BL/6 male DIO mice; 30 mg/kg, entirety of the study, compared with sham animals): significantly inhibited feed intake | effect on body weight (in words) (C57BL/6 male DIO mice; daily treatment at 10 mg/kg and 30 mg/kg, day 1 to 3): significant body weight loss | notable mean percentage body weight change difference between treated group and vehicle (in words) (MC4r (−/−) mice; 30 mg/kg twice daily): not | food consumption vs vehicle only (in words) (MC4r (−/−) mice; 30 mg/kg twice daily oral gavage): no differences | Ki (MC4r): 5 nM | Ki (mMC1r): 93 nM | Tax [1]: 2 h | Cmax ([1]; rat, plasma): 780 ng/mL | half-life ([1]; rat, plasma, read-out: terminal half-life (converted)): 3.94 h | Ki (hMC5r): 1200 nM | effect on body weight vs own vehicle group (in words) (C57Bl/6 DIO mice; 30 mg/kg two daily administrations via oral gavage): significant body weight loss | food consumption vs vehicle only (in words) (C57Bl/6 DIO mice; 6 and 24 hour timepoints, 30 mg/kg twice daily oral gavage): significantly decreased | EC50 (hMC2r): > 1000 nM | EC50 (hMC3r): > 1000 nM
